Test results as given in patent publication US8871753B2, “Macrocyclic compounds and their use as kinase inhibitors” (Incyte Corporation, priority 2008, dated 2014).
Structures can show the parent of a compound that is named as a salt. Where two headings read alike, the source gives them in different places.

Legend:
Type in all cases: biochemical
[1] = target: T1, human JAK1 (a.a. 837-1142) (Homo sapiens, UniProt P23458); assay: In vitro JAK kinase assay (HTRF, phosphorylation of a biotinylated peptide), JAK1; details: read-out: JAK1 IC50
T1 construct: human JAK1 (a.a. 837-1142); His tag (N); made in house; host or cells: insect cells (baculovirus)
T1 sequence (P23458 849-1154): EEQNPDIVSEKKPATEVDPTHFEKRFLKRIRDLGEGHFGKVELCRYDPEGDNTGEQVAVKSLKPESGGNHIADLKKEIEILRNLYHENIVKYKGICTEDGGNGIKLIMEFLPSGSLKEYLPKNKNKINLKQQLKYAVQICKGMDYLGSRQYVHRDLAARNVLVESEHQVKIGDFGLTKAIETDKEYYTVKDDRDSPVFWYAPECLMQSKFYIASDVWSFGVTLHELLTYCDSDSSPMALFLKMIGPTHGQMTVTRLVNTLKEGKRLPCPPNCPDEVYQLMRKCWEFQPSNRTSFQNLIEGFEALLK
In short: (§1)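 Kinase activity was measured as phosphorylation of a biotinylated peptide, with ATP at 90 μM for JAK1, 30 μM for JAK2 and 3 μM for JAK3. Reactions ran 1 hr at room temperature, were stopped with EDTA plus SA-APC and Eu-Py20, and were read by HTRF after 40 minutes of antibody binding.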

[2] = target: T2, human JAK2 (a.a. 828-1132) (Homo sapiens, UniProt O60674); assay: In vitro JAK kinase assay (HTRF, phosphorylation of a biotinylated peptide), JAK2
T2 construct: JAK2 (a.a. 828-1132); His tag (N); made in house; host or cells: insect cells (baculovirus)
T2 sequence (O60674 828-1132): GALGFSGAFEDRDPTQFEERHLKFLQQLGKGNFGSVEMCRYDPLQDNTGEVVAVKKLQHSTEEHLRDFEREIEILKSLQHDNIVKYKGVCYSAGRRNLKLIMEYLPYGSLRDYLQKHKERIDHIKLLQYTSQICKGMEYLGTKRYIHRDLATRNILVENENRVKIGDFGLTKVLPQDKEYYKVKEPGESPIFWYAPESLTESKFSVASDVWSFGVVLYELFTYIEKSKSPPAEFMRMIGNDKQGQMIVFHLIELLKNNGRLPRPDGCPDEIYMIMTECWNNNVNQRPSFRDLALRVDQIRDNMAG
In short: as §1

[3] = target: T3, human JAK3 (a.a. 781-1124) (Homo sapiens, UniProt P52333); assay: In vitro JAK kinase assay (HTRF, phosphorylation of a biotinylated peptide), JAK3
T3 construct: JAK3 (a.a. 781-1124); His tag (N); made in house; host or cells: insect cells (baculovirus)
T3 sequence (P52333 781-1124): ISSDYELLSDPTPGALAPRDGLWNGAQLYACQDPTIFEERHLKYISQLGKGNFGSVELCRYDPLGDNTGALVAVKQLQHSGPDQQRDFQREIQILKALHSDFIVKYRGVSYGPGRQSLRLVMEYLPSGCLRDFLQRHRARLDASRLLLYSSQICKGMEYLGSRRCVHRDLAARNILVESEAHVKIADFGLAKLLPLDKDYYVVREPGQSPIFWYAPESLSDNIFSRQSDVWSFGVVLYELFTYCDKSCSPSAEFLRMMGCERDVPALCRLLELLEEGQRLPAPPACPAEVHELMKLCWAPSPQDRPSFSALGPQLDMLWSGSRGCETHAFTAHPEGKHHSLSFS
In short: as §1

TYK2 = TYK2 (Homo sapiens, UniProt P29597); assay: TYK2 kinase inhibition (Table A1)
Chain of TYK2 (P29597 whole entry): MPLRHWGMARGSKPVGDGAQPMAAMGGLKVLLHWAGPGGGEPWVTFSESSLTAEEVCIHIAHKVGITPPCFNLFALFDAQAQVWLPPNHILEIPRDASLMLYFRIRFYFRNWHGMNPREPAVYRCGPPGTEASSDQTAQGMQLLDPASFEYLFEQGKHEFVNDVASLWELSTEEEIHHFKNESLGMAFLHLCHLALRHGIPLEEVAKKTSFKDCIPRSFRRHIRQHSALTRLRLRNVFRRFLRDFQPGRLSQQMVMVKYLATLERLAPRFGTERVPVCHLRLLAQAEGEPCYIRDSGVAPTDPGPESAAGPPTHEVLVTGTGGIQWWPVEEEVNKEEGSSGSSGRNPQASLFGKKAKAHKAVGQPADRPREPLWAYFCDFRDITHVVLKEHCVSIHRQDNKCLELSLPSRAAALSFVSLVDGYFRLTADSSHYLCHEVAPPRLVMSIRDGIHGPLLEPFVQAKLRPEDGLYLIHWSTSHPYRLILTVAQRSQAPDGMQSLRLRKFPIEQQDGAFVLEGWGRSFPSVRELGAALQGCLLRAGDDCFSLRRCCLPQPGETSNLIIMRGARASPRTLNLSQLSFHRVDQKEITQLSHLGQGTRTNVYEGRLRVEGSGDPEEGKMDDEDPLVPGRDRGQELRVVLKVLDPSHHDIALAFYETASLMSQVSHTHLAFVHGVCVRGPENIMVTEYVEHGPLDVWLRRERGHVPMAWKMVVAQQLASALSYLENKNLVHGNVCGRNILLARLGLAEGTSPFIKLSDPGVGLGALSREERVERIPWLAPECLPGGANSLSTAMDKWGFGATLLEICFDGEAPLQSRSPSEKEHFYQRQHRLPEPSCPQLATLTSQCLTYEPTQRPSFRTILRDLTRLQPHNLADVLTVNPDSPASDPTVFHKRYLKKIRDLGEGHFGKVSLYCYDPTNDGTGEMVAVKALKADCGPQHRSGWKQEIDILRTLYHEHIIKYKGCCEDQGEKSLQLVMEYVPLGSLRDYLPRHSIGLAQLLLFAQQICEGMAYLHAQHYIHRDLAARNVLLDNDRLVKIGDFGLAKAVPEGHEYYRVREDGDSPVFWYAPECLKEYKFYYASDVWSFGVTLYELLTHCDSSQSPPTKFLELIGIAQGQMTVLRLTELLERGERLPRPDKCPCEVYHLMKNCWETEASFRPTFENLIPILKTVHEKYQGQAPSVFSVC

IC50 [1] [nM]	IC50 [2] [nM]	IC50 [3] [nM]	IC50 (TYK2) [nM]	IC50 ([1]; Table D1) [nM]	IC50 ([2]; Table D1) [nM]	IC50 ([3]; Table D1) [nM]	IC50 (TYK2; Table D1) [nM]	Compound
232	203	> 10000	549					O=C(Cc1csc2ccccc12)Nc1ccc2cc1CCc1cccc(c1)Nc1ncc(Cl)c(n1)N2 [Example C35, 2-(1-Benzothien-3-yl)-N-[6-chloro-2,4,8,22-tetraazatetracyclo[14.3.1.1(3,7).1(9,13)]docosa-1(20),3(22),4,6,9(21),10,12,16,18-nonaen-12-yl]acetamide trifluoroacetate]
62	56	804	291					O=C(Cc1ccncc1)Nc1ccc2cc1CCc1cccc(c1)Nc1ncc(Cl)c(n1)N2 [Example C40, N-[6-Chloro-2,4,8,22-tetraazatetracyclo[14.3.1.1(3,7).1(9,13)]docosa-1(20),3(22),4,6,9(21),10,12,16,18-nonaen-12-yl]-2-pyridin-4-ylacetamide bis(trifluoroacetate)]
				160	> 400	> 400	> 400	N#Cc1ccc(NC(=O)N2CCC(CCOc3ccc4cc3CCc3cncc(c3)Nc3ncc(Cl)c(n3)N4)CC2)cc1 [Example D174, 4-(2-{[6-Chloro-2,4,8,18,22-pentaazatetracyclo[14.3.1.1(3,7).1(9,13)]docosa-1(20),3(22),4,6,9(21),10,12,16,18-nonaen-12-yl]oxy}ethyl)-N-(4-cyanophenyl)piperidine-1-carboxamide bis(trifluoroacetate)]
				19	7.7	15	14	NC1CCN(c2ccc3cc2CCc2cccc(c2)Nc2ncc(Cl)c(n2)N3)C1 (centres unmarked) [Example D88, 1-[6-Chloro-2,4,8,22-tetraazatetracyclo[14.3.1.1(3,7).1(9,13)]docosa-1(20),3(22),4,6,9(21),10,12,16,18-nonaen-12-yl]pyrrolidin-3-amine tris(trifluoroacetate)]
				71	> 400	> 400	> 400	COc1cccnc1N1CCN(C(=O)COc2ccc3cc2CCc2cncc(c2)Nc2ncc(Cl)c(n2)N3)CC1 [Example D249, 6-Chloro-12-{2-[4-(3-methoxypyridin-2-yl)piperazin-1-yl]-2-oxoethoxy}-2,4,8,18,22-pentaazatetracyclo[14.3.1.1(3,7).1(9,13)]docosa-1(20),3(22),4,6,9(21),10,12,16,18-nonaene tris(trifluoroacetate)]
				26	85	> 1000	401	O=C(CC1CN(C(=O)c2nc[nH]n2)C1)Nc1ccc2cc1CCc1cncc(c1)Nc1ncc(Cl)c(n1)N2 [Example D147, N-[6-Chloro-2,4,8,18,22-pentaazatetracyclo[14.3.1.1(3,7).1(9,13)]docosa-1(20),3(22),4,6,9(21),10,12,16,18-nonaen-12-yl]-2-[1-(1H-1,2,4-triazol-3-ylcarbonyl)azetidin-3-yl]acetamide bis(trifluoroacetate)]
				23	130	> 400	> 400	O=C(Nc1ccccc1F)N1CCC(CCOc2ccc3cc2CCc2cncc(c2)Nc2ncc(Cl)c(n2)N3)CC1 [Example D170, 4-(2-{[6-Chloro-2,4,8,18,22-pentaazatetracyclo[14.3.1.1(3,7).1(9,13)]docosa-1(20),3(22),4,6,9(21),10,12,16,18-nonaen-12-yl]oxy}ethyl)-N-(2-fluorophenyl)piperidine-1-carboxamide bis(trifluoroacetate)]

Compound	IC50 [1] [nM]	IC50 [2] [nM]	IC50 [3] [nM]	IC50 (TYK2) [nM]	IC50 ([1]; Table D1) [nM]	IC50 ([2]; Table D1) [nM]	IC50 ([3]; Table D1) [nM]	IC50 (TYK2; Table D1) [nM]
O=C(COc1ccc2cc1CCc1cncc(c1)Nc1ncc(Cl)c(n1)N2)N1CCN(Cc2cccnc2)CC1 [Example D255, 6-Chloro-12-{2-oxo-2-[4-(pyridin-3-ylmethyl)piperazin-1-yl]ethoxy}-2,4,8,18,22-pentaazatetracyclo[14.3.1.1(3,7).1(9,13)]docosa-1(20),3(22),4,6,9(21),10,12,16,18-nonaene tris(trifluoroacetate)]					90	226	> 400	> 400
